In patent US20250041312A1, “METHODS OF ADMINISTERING A MODULATOR OF HEMOGLOBIN” (Global Blood Therapeutics, Inc., priority 2021, published 2025):
Marks after values point to notes of the source that are not given here.

Assay: SCD cohort safety (TEAEs)
Type: in vivo, human
Method: After a washout period of at least 56 days (so that elimination PK of Compound I could be assessed), the patients were administered a loading dose of 300 mg per day of Compound I for one day followed by 200 mg per day of Compound I for one day, and then were administered a maintenance dose of 50 mg per day of Compound I for five weeks (“MAD-1 Cohort”). The same patients then received another loading dose of 500 mg per day of Compound I for one day followed by 400 mg per day of Compound I for one day, and then were administered another maintenance dose of 100 mg per day of Compound I for three weeks (“MAD-2 Cohort”). The total treatment period of the MAD-1 Cohort and MAD-2 Cohort was 8 weeks.
Primary endpoints were safety and tolerability. Key secondary endpoints included PK and the relationship between time-matched Compound I concentrations and changes in clinical measures of anemia and hemolysis from baseline.
The majority of treatment emergent adverse events were grade 1 or 2 and unrelated to study drug.
Following the conclusion of the MAD-2 study and a washout period of about 8 months, the selected patients (n=4) were administered a loading dose of 300 mg BID for 4 days, followed thereafter by a maintenance dose of 150 mg QD (MAD-3 Cohort).

[1] = MAD-3 SCD patients N=4 (300 mg BID x 4 days, then 150 mg QD)
[2] = SCD N=6, single dose and multiple dose portions (Table 13A)
[3] = SCD n=6, single dose, MAD-1 (50 mg qd) and MAD-2 (100 mg qd) (Table 13B)

O=Cc1c(O)cccc1OC[C@@H]1COCCN1C(=O)c1cccnc1CCO [Compound I, (S)-2-hydroxy-6-((4-(2-(2-hydroxyethyl)nicotinoyl)morpholin-3-yl)methoxy)benzaldehyde]
Number of SAEs [1]: 0 | Number of TEAEs [1]: 6 | Number of TEAEs grade ≥ 3 [1]: 0 | Number of TEAEs leading to study drug discontinuation [1]: 0 | Number of drug-related TEAEs [1]: 1 | Number of TEAEs [2]: 24 | Number of TEAEs grade ≥ 3 [2]: 5 | Number of TEAEs leading to study drug discontinuation [2]: 0 | Number of drug-related TEAEs (SCD N=6, single dose and multiple dose portions (Table 13A), 1 grade 2 headache, 2 grade 1 diarrhea): 3^a | Number of SAEs (SCD N=6, single dose and multiple dose portions (Table 13A), SAEs were grade 3 VOCs): 2^b | safety and tolerability (SCD cohort, single dose portion and multiple ascending dose phases): safe and well tolerated | Number of SAEs [3]: 3 | Number of TEAEs [3]: 33 | Number of TEAEs grade ≥ 3 [3]: 7 | Number of TEAEs leading to study drug discontinuation [3]: 0 | Number of drug-related TEAEs [3]: 4 | tolerability (adults with SCD, daily maintenance doses of 150 mg): well tolerated
